For series [1], the system named is Rattus norvegicus. Briefly: Anticonvulsant activity against PTZ-induced kindling Wistar rat model assessed as seizure latency at 30 mg/kg, ip. Conditions: route intraperitoneal. In kind it is functional.
Series [2] deals with Rattus norvegicus. Briefly: Anticonvulsant activity against PTZ-induced kindling Wistar rat model assessed as duration of behavirol seizure at 30 mg/kg, ip. It counts as functional. Conditions: route intraperitoneal.
Series [3] has as its system Rattus norvegicus. Briefly: Neurotoxicity in Wistar rat at 30 mg/kg, ip by rotarod test. In kind it is toxicity, organism-based. Also on record: dose 30 mg/kg, route intraperitoneal. Conditions: in vivo. A general note: The rotarod test checks motor coordination on a turning rod.
Series [4] concerns Rattus norvegicus. Briefly: Neurotoxicity in Wistar rat assessed as motor impairment at 30 mg/kg, ip by rotarod test. It counts as toxicity, organism-based. Also on record: dose 30 mg/kg, route intraperitoneal. Conditions: in vivo.
In series [5] the test system is Rattus norvegicus. The series can be described thus: Anticonvulsant activity against PTZ-induced kindling Wistar rat model assessed as seizure latency at 100 mg/kg, ip. It counts as functional. Conditions: route intraperitoneal.
In series [6] the test system is Rattus norvegicus. Briefly: Anticonvulsant activity against PTZ-induced kindling Wistar rat model assessed as duration of behavirol seizure at 100 mg/kg, ip. In kind it is functional. As to conditions: route intraperitoneal.
Series [7] concerns Rattus norvegicus. The series can be described thus: Anticonvulsant activity against PTZ-induced kindling Wistar rat model assessed as seizure latency at 200 mg/kg, ip. In kind it is functional. Conditions: route intraperitoneal.
Series [8] has as its system Rattus norvegicus. The series can be described thus: Anticonvulsant activity against PTZ-induced kindling Wistar rat model assessed as duration of behavirol seizure at 200 mg/kg, ip. It counts as functional. As to conditions: route intraperitoneal.
Series [9] concerns Rattus norvegicus. Briefly: Neurotoxicity in Wistar rat assessed as motor impairment at 100 mg/kg, ip by rotarod test. In kind it is toxicity, organism-based. Set-up: dose 100 mg/kg, route intraperitoneal. As to conditions: in vivo.

Results on 26 molecules are retold here after ChEMBL document CHEMBL1641496, “Imidazolylchromanone oxime ethers as potential anticonvulsant agents: Anticonvulsive evaluation in PTZ-kindling model of epilepsy and SAR study” (Bioorg Med Chem Lett, 2011).

Structures are written as SMILES.

In the case of `Brc1ccc(CO/N=C2\c3ccccc3OCC2n2ccnc2)cc1.O=[N+]([O-])O` (racemic), the Time in [1] stood at 261 s; in series [2], 56.5 s.
Take `Clc1ccc(CO/N=C2/c3ccc(Cl)cc3OCC2n2ccnc2)c(Cl)c1.O=[N+]([O-])O` (racemic): the results for the Activity result in series [3] and in [4] were “Non-toxic” and 25%, respectively. Moreover, the values for the Time in series [1] and in [2] were 715 s and 40.3 s, respectively.
In the case of `O=[N+]([O-])O.c1ccc(CO/N=C2/c3ccccc3OCC2n2ccnc2)cc1` (racemic), the Time in series [1] is 274 s; in series [2] it was 49.8 s.
The matching figures for `Clc1ccc2c(c1)OCC(n1ccnc1)/C2=N\OCc1ccc(Cl)c(Cl)c1.O=[N+]([O-])O` (racemic): 271 s and 48.5 s.
The matching figures for `CC1Oc2cc(Cl)ccc2/C(=N/OCc2ccc(Cl)cc2)C1n1ccnc1.O=[N+]([O-])O` (racemic): 286 s and 45.5 s.
In the case of `Clc1ccc(CO/N=C2\c3ccccc3OCC2n2ccnc2)cc1Cl.O=[N+]([O-])O` (racemic), the figures for the Time in series [1] and in [2] were 266 s and 51.8 s, respectively.
The matching figures for `Clc1ccc(CO/N=C2\c3ccccc3OCC2n2ccnc2)cc1.O=[N+]([O-])O` (racemic): 258 s and 51 s.
The matching figures for `CC1Oc2ccccc2/C(=N/OCc2ccc(Cl)cc2)C1n1ccnc1.O=[N+]([O-])O` (racemic): 286 s and 49.7 s.
The matching figures for `CC1Oc2ccccc2/C(=N/OCc2ccc(Br)cc2)C1n1ccnc1.O=[N+]([O-])O` (racemic): 305 s and 51.3 s.
In the case of `Clc1ccc(CO/N=C2/c3ccccc3OCC2n2ccnc2)cc1.O=[N+]([O-])O` (racemic), the Time is reported as 237 s in series [1] and 52 s in series [2].
The corresponding values for `Clc1ccc(CO/N=C2/c3ccccc3OCC2n2ccnc2)c(Cl)c1.O=[N+]([O-])O` (racemic) are 358 s and 49.2 s.
The corresponding values for `CC1Oc2ccccc2/C(=N/OCc2ccccc2F)C1n1ccnc1.O=[N+]([O-])O` (racemic) are 254 s and 51.7 s.
With `CC1Oc2ccccc2/C(=N/OCc2ccc(Cl)cc2Cl)C1n1ccnc1.O=[N+]([O-])O` (racemic), the Time in [1] worked out at 644 s; in series [2], 42.8 s.
Turning to `CC1Oc2ccccc2/C(=N/OCc2ccc(F)cc2)C1n1ccnc1.O=[N+]([O-])O` (racemic), the Time in series [1] is 263 s; in [2], 52.3 s.
For `Clc1ccc(CO/N=C2/c3ccc(Cl)cc3OCC2n2ccnc2)cc1.O=[N+]([O-])O` (racemic), the Time in series [1] was found to be 467 s; in series [2], 47 s.
The matching figures for `CC1Oc2ccccc2/C(=N/OCc2cccc(F)c2)C1n1ccnc1.O=[N+]([O-])O` (racemic): 321 s and 51.5 s.
The corresponding values for `O=[N+]([O-])O.c1ccc(CO/N=C2\c3ccccc3OCC2n2ccnc2)cc1` (racemic) are 288 s and 50.8 s.
Turning to `CCCC(CCC)C(=O)[O-].[Na+]` [VALPROATE SODIUM], the Time in series [5] is listed as 817 s; in [6], 40.5 s; in [7], 900 s; in series [8] it was 26.5 s.
For the molecule `Clc1ccc(CO/N=C2/c3ccccc3OCC2n2ccnc2)cc1Cl.O=[N+]([O-])O` (racemic), the Time turned out to be 285 s in [1] and 50.3 s in series [2].
Turning to `CC1Oc2cc(Cl)ccc2/C(=N/OCc2ccc(Cl)cc2Cl)C1n1ccnc1.O=[N+]([O-])O` (racemic), the values for the Activity result in series [3] and in series [9] were “Non-toxic” and 50%, respectively. The Time in series [1] was 776 s; in [2], 342 s.
For `Brc1ccc(CO/N=C2/c3ccccc3OCC2n2ccnc2)cc1.O=[N+]([O-])O` (racemic), the Time in series [1] is reported as 268 s; in series [2], 54.8 s.
The corresponding values for `CC1Oc2ccccc2/C(=N/OCc2ccccc2)C1n1ccnc1.O=[N+]([O-])O` (racemic) are 259 s and 52.7 s.
The matching figures for `CC1Oc2ccccc2/C(=N/OCc2ccc(Cl)c(Cl)c2)C1n1ccnc1.O=[N+]([O-])O` (racemic): 367 s and 47.5 s.
As for `Clc1ccc(CO/N=C2\c3ccccc3OCC2n2ccnc2)c(Cl)c1.O=[N+]([O-])O` (racemic), the Time is on record as 293 s in series [1] and 49.3 s in [2].
The matching figures for `CC1Oc2cc(Cl)ccc2/C(=N/OCc2ccccc2)C1n1ccnc1.O=[N+]([O-])O` (racemic): 282 s and 50.7 s.
The corresponding values for `Clc1ccc2c(c1)OCC(n1ccnc1)/C2=N\OCc1ccccc1.O=[N+]([O-])O` (racemic) are 323 s and 46.7 s.
